According to patent US20250074892A1, “CARBONYL BRIDGED HETEROCYCLIC COMPOUND, AND COMPOSITION AND APPLICATION THEREOF” (BEIJING SCITECH-MQ PHARMACEUTICALS LIMITED, priority 2022, published 2025):

Tests used:
[1] = tested on: HT29 cells; experiment: Inhibition of cell necrosis (CCK8 method), HT29 cells; format: cell-based, human; conditions: for IC50: HT29, Human TNF-α/AT-406/Z-VAD-FMK, 16 hours, CCK8; for inhibitory activity against human HT29 cells: HT29 necrosis
Protocol: (§1) In this assay example 2, under the condition of inducing programmed cell necrosis of HT29 and L929 cell lines, different concentrations of the test compounds were added to test the IC50 of the rescue effect of the test compounds on the programmed necrosis.
(§2) • Compounds: dissolved in DMSO to make a 10 mM solution; • TNF-α: initial concentration of 100 µg/mL; • Z-VAD-FMK: dissolved in DMSO to make a 10 mM solution; • AT-406: dissolved in DMSO to make a 10 mM solution. • Cell lines: HT29 cells were cultured in McCoy's 5A medium containing 10% fetal bovine serum, 100 U/mL penicillin, and 100 µg/mL streptomycin, and L929 cells were cultured in MEM medium containing 10% horse serum, 100 U/mL penicillin, and 100 µg/mL streptomycin.
(§3) 1. The test compound was dissolved in DMSO to form a stock solution, and a gradient dilution was performed; the solution was then diluted with the corresponding culture medium to obtain a solution with 10 times the working concentration.
(§4) 2. The cells in the logarithmic growth phase were diluted with culture medium to a specific cell concentration. 80 µL of the cell suspension was added to a 96-well plate, so that the cell densities of HT29 and L929 were 1.2*10^4 cells/well and 2.0*10^4 cells/well, respectively. The plate was cultured in a 37° C., 5% carbon dioxide incubator overnight.
(§5) 3. […] of the compound solution was added to each well of the 96-well plate inoculated with cells. The compounds to be tested were serially diluted 4-fold to obtain 9 concentrations in duplicate, starting from a maximum concentration of 10 μM. At the same time, a control group without compound addition was set up.
(§6) 4. After the cells were cultured for another 30 minutes, 10 μL of the inducer mixture was added to each well. The final concentrations of Human TNF-α, AT-406 and Z-VAD-FMK in HT29 cells were 20 ng/mL, […] and 20 μM, respectively; and the final concentrations of Murine TNF-α and Z-VAD-FMK in L929 cells were 20 ng/mL and 25 μM, respectively.
(§7) 5. The 96-well plate in which compounds and inducer were added was placed in a 37° C., 5% carbon dioxide incubator for further culture, wherein HT29 cells were cultured for 16 hours and L929 cells were cultured for 4-8 hours. Cell viability was detected by CCK8. GraphPad Prism software was used to prepare a dose-effect curve and IC50 was calculated.

[2] = tested on: L929 cells; experiment: Inhibition of cell necrosis (CCK8 method), L929 cells; format: cell-based, mouse; conditions: for IC50: 4-8 hours, CCK8; for inhibitory activity against mouse L929 cells: L929 necrosis
Protocol: as §1, §2, §3, §4, §5, §6, §7

[3] = Mus musculus, L929, L929, Murine TNF-α/Z-VAD-FMK

Row | SMILES | IC50 [1] [µM] | IC50 ([2]; L929, Murine TNF-α/Z-VAD-FMK) [µM] | IC50 ([1]; Homo sapiens, HT-29, 16 h) [µM] | IC50 [2, 3] [µM] | inhibitory activity against human HT29 cells [1] | inhibitory activity against mouse L929 cells [2]
1 | COCCCCOc1ccc(C)c(-c2ccnc(N3CCC(C(=O)N4N=CCC4c4cc(F)cc(F)c4)CC3)c2)c1 (stereo not shown) [Example 34, (5-(3,5-difluorophenyl)-4,5-dihydro-1H-pyrazol-1-yl)(1-(4-(5-(4-methoxybutoxy)-2-methylphenyl)pyridin-2-yl)piperidin-4-yl)methanone] | 0.01 to 0.05 | 0.05 to 0.1 |  |  |  | 
2 | Cc1ccc(OCCCCO)cc1-c1ccnc(N2CCC(C(=O)N3N=CCC3c3cc(F)cc(F)c3)CC2)c1 (stereo not shown) [Example 35, (5-(3,5-difluorophenyl)-4,5-dihydro-1H-pyrazol-1-yl)(1-(4-(5-(4-hydroxybutoxy)-2-methylphenyl)pyridin-2-yl)piperidin-4-yl)methanone] | 0.01 to 0.05 | 0.05 to 0.1 |  |  |  | 
3 | O=C(C1CCN(c2cc(-c3cc(OCCCCO)ccc3F)ccn2)CC1)N1N=CCC1c1cc(F)cc(F)c1 (stereo not shown) [Example 36, (5-(3,5-difluorophenyl)-4,5-dihydro-1H-pyrazol-1-yl)(1-(4-(2-fluoro-5-(4-hydroxybutoxy)phenyl)pyridin-2-yl)piperidin-4-yl)methanone] |  |  | ≤ 0.01 | 0.05 to 0.1 |  | 
4 | O=C(C1CCN(c2cc(-c3cc(OCC(F)(F)CO)ccc3F)ccn2)CC1)N1N=CCC1c1cc(F)cc(F)c1 (stereo not shown) [Example 37, (1-(4-(5-(2,2-difluoro-3-hydroxypropoxy)-2-fluorophenyl)pyridin-2-yl)piperidin-4-yl) (5-(3,5-difluorophenyl)-4,5-dihydro-1H-pyrazol-1-yl)methanone] |  |  | ≤ 0.01 | 0.01 to 0.05 |  | 
5 | O=C(C1CCN(c2nccc(-c3cc(OCCCO)ccc3F)n2)CC1)N1N=CCC1c1cc(F)cc(F)c1 (stereo not shown) [Example 38, (5-(3,5-difluorophenyl)-4,5-dihydro-1H-pyrazol-1-yl)(1-(4-(2-fluoro-5-(3-hydroxypropoxy)phenyl)pyrimidin-2-yl)piperidin-4-yl)methanone] |  |  | 0.01 to 0.05 | 0.05 to 0.1 |  | 
6 | CC(C)(O)CCOc1ccc(F)c(-c2ccnc(N3CCC(C(=O)N4N=CCC4c4cc(F)cc(F)c4)CC3)n2)c1 (stereo not shown) [Example 39, (5-(3,5-difluorophenyl)-4,5-dihydro-1H-pyrazol-1-yl)(1-(4-(2-fluoro-5-(3-hydroxy-3-methylbutoxy)phenyl)pyrimidin-2-yl)piperidin-4-yl)methanone] |  |  | ≤ 0.01 | 0.05 to 0.1 |  | 
7 | CCC(O)(CC)COc1ccc(F)c(-c2ccnc(N3CCC(C(=O)N4N=CCC4c4cc(F)cc(F)c4)CC3)c2)c1 (stereo not shown) [Example 44, [5-(3,5-difluorophenyl)-4,5-dihydro-1H-pyrazol-1-yl]-[1-[4-[5-(2-ethyl-2-hydroxybutoxy)-2-fluorophenyl]pyridin-2-yl]piperidin-4-yl]methanone] |  |  | ≤ 0.01 | 0.01 to 0.05 |  | 
8 | O=C(C1CCN(c2cc(-c3cc(OCC4(O)CC4)ccc3F)ccn2)CC1)N1N=CCC1c1cc(F)cc(F)c1 (stereo not shown) [Example 45, [5-(3,5-difluorophenyl)-4,5-dihydro-1H-pyrazol-1-yl]-[1-[4-[2-fluoro-5-[(1-hydroxycyclopropyl)methoxy]phenyl]pyridin-2-yl]piperidin-4-yl]methanone] |  |  | ≤ 0.01 | 0.01 to 0.05 |  | 
9 | O=C(C1CCN(c2cc(-c3cc(OCC4(O)CCC4)ccc3F)ccn2)CC1)N1N=CCC1c1cc(F)cc(F)c1 (stereo not shown) [Example 46, (5-(3,5-difluorophenyl)-4,5-dihydro-1H-pyrazol-1-yl)(1-(4-(2-fluoro-5-((1-hydroxycyclobutyl)methoxy)phenyl)pyridin-2-yl)piperidin-4-yl)methanone] |  |  | ≤ 0.01 | 0.01 to 0.05 |  | 
10 | CC(C)(O)COc1ccc(F)c(-c2ccnc(N3CCC(C(=O)N4N=CCC4c4cc(F)cc(F)c4)CC3)c2)c1 (stereo not shown) [Example 47, (5-(3,5-difluorophenyl)-4,5-dihydro-1H-pyrazol-1-yl-5-deuterium)(1-(4-(2-fluoro-5-(2-hydroxy-2-methylpropoxy)phenyl)pyridin-2-yl)piperidin-4-yl)methanone] | 0.01 to 0.05 | 0.01 to 0.05 |  |  |  | 
11 | NC(=O)c1ccc(N2CCC(C(=O)N3N=CCC3c3ccccc3)CC2)nc1 (stereo not shown) [compound 1, reference compound] |  |  | 0.4 to 4 | > 4 | significantly inferior to those of the compounds of the present application | almost no inhibitory activities
12 | O=C(C1CCN(c2nccc(-c3ccccc3)n2)CC1)N1N=CCC1c1ccccc1 (stereo not shown) [compound 2, reference compound] |  |  | 0.4 to 4 | > 4 | significantly inferior to those of the compounds of the present application | almost no inhibitory activities
